{"source": "patent US5885994A", "about": "“Tetrahydroquinoxaline dopamine D4 receptor antagonists” (Warner-Lambert Company, priority 1998, dated 1999)", "key": {"human DA D4.2 receptor": {"target": "T1, human DA D4.2 receptor (Homo sapiens, UniProt P21917, DEL265-296)", "T1 construct": "expressed in transfected cells", "T1 sequence (P21917 with tags, fused parts or gaps DEL265-296)": "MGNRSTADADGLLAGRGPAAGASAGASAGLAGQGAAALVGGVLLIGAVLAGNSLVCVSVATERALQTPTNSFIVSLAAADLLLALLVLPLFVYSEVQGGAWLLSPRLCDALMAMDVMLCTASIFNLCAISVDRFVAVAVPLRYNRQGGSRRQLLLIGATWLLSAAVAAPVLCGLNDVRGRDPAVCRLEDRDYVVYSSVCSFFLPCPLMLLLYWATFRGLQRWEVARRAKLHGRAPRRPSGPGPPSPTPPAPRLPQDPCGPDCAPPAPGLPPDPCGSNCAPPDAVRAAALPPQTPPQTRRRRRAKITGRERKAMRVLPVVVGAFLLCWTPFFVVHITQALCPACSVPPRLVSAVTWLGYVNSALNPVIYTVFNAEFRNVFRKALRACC", "test": "[3H]Thymidine uptake assay (block of quinpirole stimulation in CHO pro-5 cells transfected with human DA D4.2 receptor)", "format": "cell-based", "conditions": "human D4.2, quinpirole-stimulated uptake", "procedure": "Compounds were tested for their ability to bind to dopamine (DA) receptors as measured by their inhibition of [^3 H]spiperone binding to the human D2, and D4.2 receptors (Pugsley, et al., 1995). The ability of test compounds to block the stimulation of [^3 H]thymidine uptake in CHO pro-5 cells transfected with human DA D4.2 receptor cDNA caused by the DA agonist quinpirole was employed as an in vitro measure of DA receptor antagonist activity (Pugsley, et al., 1995). The effects of compounds on synthesis rates of rat brain catecholamines were estimated by measuring the accumulation of [3-(3,4-dihydroxyphenyl)-L-alanine (DOPA) after administration of the L-aromatic amino acid decarboxylase inhibitor, NSD 1015 (Pugsley, et al., 1995).\n[^3 H]Thymidine Uptake Assay\nThe effects of test compounds on [^3 H]thymidine uptake were carried out essentially as described by Pugsley, et al., 1995. CHO p-5 cells transfected with human D4.2 cDNA were seeded into 96-well plates at a density of about 5000 cells/well and were grown at 37° C. in a minimum essential medium (aMEM, Gibco) with 10% calf serum for 2 days. The wells were then rinsed three times with serum-free media. Fresh media ([…]) was added along with […] of test compound in water or vehicle alone. Eight wells of each plate received […] of aMEM with 10% fetal calf serum. After culture for 16 to 17 hours, [3H]thymidine ([…]) was added for 4 hours. The cells were trypsinized and harvested onto filter mats with a 96-well Brandel cell harvester. The filters were counted in a Beta-Plate scintillation counter."}, "human D4.2 receptor": {"target": "T2, human D4.2 receptor (Homo sapiens, UniProt P21917, DEL265-296)", "T2 construct": "expressed in transfected cells; host or cells: CHO K1 cells", "T2 sequence (P21917 with tags, fused parts or gaps DEL265-296)": "T1 sequence (P21917 with tags, fused parts or gaps DEL265-296)", "test": "Inhibition of [3H]spiperone binding to human dopamine D4.2 receptors", "conditions": "human D4.2, CHO K1 membranes", "from_the_text": "A cell line expressing human dopamine D2 (Long form) receptors was purchased from Oregon Health Sciences University, Portland, Oreg. The D2 receptor cDNA was subcloned into an expression vector, pRc/CMV. The plasmids were transfected by electroporation into CHO K1 cells. A single stable transfectant, resistant to the antibiotic 418, was isolated and selected for use in the binding studies. For D4 binding, CHO K1 cells stably transfected to express the human recombinant dopamine D4.2 receptor subtype, as described by Shih, et al., \"The expression and functional characterization of human dopamine D4.2 receptor in CHO K1 cells,\" Soc. Neurosci., 1995;21(Part 1):621.\nCHO K1 cells expressing either human D2 and D4.2 receptors were grown in 162 cm^2 culture flasks in F12 medium (Gibco Laboratories, Grand Island, N.Y.) supplemented with 10% fetal bovine serum (FBS, Hyclone, Logan, Utah) in an atmosphere of 5% CO2 /95% air at 37° C. Cells were grown until confluent, after which growth medium was removed and replaced with 0.02% ethylene diamine tetracetate (EDTA) in a phosphate-buffered saline solution (Sigma Chemical Co., St. Louis, Mo.) and scraped from the flasks. The cells were centrifuged at about 1000×g for 10 minutes at […] and then resuspended in TEM buffer (25 mM Tris-HCl, pH 7.4, 5 mM EDTA, and 6 mM MgCl2) for D2 or the D4.2 buffer (50 mM Tris-HCl, pH 7.4, 5 mM EDTA, 1.5 mM CaCl2, 5 mM KCl, and 120 mM NaCl) and homogenized. The membranes were pelleted by centrifugation at 20,000×g at […] for 20 minutes. Then the pellets were resuspended in appropriate buffer at 1 mL/flask and stored at -70° C. until used in the receptor binding assay.\nReceptor Binding Assays: D2,D4.2 Dopamine Receptors\nAfter 60 minutes incubation at 25° C., the incubations were terminated by rapid filtration through Whatmann F/B lass fibre filters (soaked for 1 hour in 0.5% polyethylenimine) on a cell harvester, with three washes of 1 mL ice-cold buffer. Individual filter disks containing the bound ligand were placed in counting vials with 4 mL of scintillation fluid (Ready Gel, Beckman Instrument Inc., Fullerton, Calif.) and then counted in a Beckman LS-6800 liquid scintillation counter at an efficiency of 45%. Nonspecific binding was defined in presence of 1 mM of haloperidol.\nSaturation and competition binding data were analyzed using an iterative nonlinear least-square curve-fitting Ligand program. In competition experiments, apparent Ki values were calculated from IC50 values by method of Cheng and Prusoff, \"Relationship between the inhibition constant (Ki) and the concentration of inhibitor which causes 50% inhibition (IC50) of an enzymatic reaction,\" Biochem. Pharmacol., 1973;22:3099-3108. Experimental compounds were made up as stock solutions in dimethyl sulfoxide (DMSO). […] Each observation was carried out in triplicate. To allow these calculations, Ki values were measured for the interaction of various ligands with the receptor. […]"}}, "data": [{"smiles": "Cc1ccc(N2CCN(Cc3ccc4c(c3)NCCN4)CC2)cc1C", "note": "[Example 2, 6-[4-(3,4-Dimethylphenyl)piperazin-1-ylmethyl]-1,2,3,4-tetrahydroquinoxaline]", "values": [{"measurement": "IC50", "setting": "human DA D4.2 receptor", "value": 1.6, "unit": "nM"}, {"measurement": "IC50", "setting": "human D4.2 receptor", "value": 2.8, "unit": "nM"}]}]}
